Source: article PMC9664868, “Dephospho-Coenzyme A Kinase Is an Exploitable Drug Target against Plasmodium falciparum: Identification of Selective Inhibitors by High-Throughput Screening of a Large Chemical Compound Library” (Antimicrobial Agents and Chemotherapy, 2022)
Where two headings read alike, the source gives them in different places.

Tests used:
HepG2 cell line = assay: Cytotoxicity assay (Cell Counting Kit-8); type: cell-based, human
Description: Cytotoxicity against human cells was evaluated using the human liver carcinoma HepG2 cell line. HepG2 cells were cultured in D-MED supplemented with 4 mM L-glutamine and 10% fetal bovine serum (FBS) in a 75-cm^2 flask (Violamo) at 37°C. For the cytotoxicity assay, HepG2 cells in semiconfluent state were detached from the flask by incubating the cells with 5 mL D-MEM containing 0.25% trypsin-EDTA. After detachment, HepG2 cells were resuspended in D-MEM-supplemented L-glutamine and FBS, and cell viability was evaluated by incubating cells with 0.4% Trypan blue on a hemocytometer. An approximately 50-μL suspension containing 3,000 cells was dispensed into each well on a 384-well clear-bottom plate using a Multidrop Combi dispenser. Compounds dissolved in DMSO had been dispensed into wells to yield final concentrations of 100, 20, 4, 0.8, and 0.2 μM before cells were added. After cells were added to the plates, they were cultured at 37°C under 5% CO2. After 48 h cultivation, 5 μL of Cell Counting Kit-8 (Dojindo, Japan) was added, and the plates were further incubated for 2 h to assess cell growth and survival.

[1] = test system: P. falciparum drug-sensitive 3D7 strain; assay: Erythrocytic-stage parasite growth inhibition, diaphorase-coupled LDH assay, 3D7; type: cell-based, Plasmodium falciparum; settings: for Selectivity index IC50 (HepG2/3D7): HepG2 IC50 / 3D7 IC50
Description: (§1) Selected hit compounds were also tested against erythrocytic-stage parasites of P. falciparum drug-sensitive 3D7 and drug-resistant Dd2 strains ([39]). For the phenotypic assay, parasite cultures were synchronized with 5% (wt/vol) D-sorbitol as previously described ([40]). A synchronized culture containing ring-stage parasites of 0.3% parasitemia was initiated with a culture volume of 25 μL/well on a 384-well plate. A series of diluted compounds (at final concentrations of 50, 10, 2, 0.4, and 0.08 μM) were used to calculate IC50 values. Mefloquine at 50 μM and atovaquone at 20 μM were used as no-growth control (100% inhibition). After 72 h of incubation, parasite growth was measured by diaphorase-coupled lactate dehydrogenase (LDH) assay as previously described ([41]). Absorbance at 650 nm was measured using SpectraMax Paradigm multimode microplate reader (Molecular Devices, San Jose, CA, USA). The IC50 values were calculated as described above.

[2] = test system: P. falciparum drug-resistant Dd2 strain; assay: Erythrocytic-stage parasite growth inhibition, diaphorase-coupled LDH assay, Dd2; type: cell-based, Plasmodium falciparum
Description: as §1

PfDPCK = PfDPCK (Plasmodium falciparum, UniProt Q8IL34); assay: PfDPCK inhibition, enzyme-coupled fluorescence ADP detection assay (HTS and IC50 determination); type: biochemical
PfDPCK, sequence (Q8IL34 entry or part of it): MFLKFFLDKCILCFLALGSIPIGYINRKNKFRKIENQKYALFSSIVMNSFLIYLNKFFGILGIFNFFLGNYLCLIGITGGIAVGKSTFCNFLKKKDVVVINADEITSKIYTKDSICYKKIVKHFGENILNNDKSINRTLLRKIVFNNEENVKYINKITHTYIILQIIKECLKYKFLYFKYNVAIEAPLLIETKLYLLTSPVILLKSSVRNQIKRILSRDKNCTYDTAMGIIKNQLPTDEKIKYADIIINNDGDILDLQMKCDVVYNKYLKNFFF
Description: High-throughput screening against recombinant PfDPCK was performed using the Drug Discovery Initiative (DDI) full library, available from The University of Tokyo, composed of approximately 210,000 compounds. The primary assay was performed on 1,536-well white plate format with a final volume of 2 μL/well, containing 10 μM test compounds using a Multidrop Combi reagent dispenser (Thermo Fisher Scientific, Waltham, MA). The reaction was conducted in the assay buffer described above with 100 μM ATP and 50 μM dephospho-CoA. The assay was carried out at room temperature for 4 h in a closed plastic container with wet tissues. The reaction was stopped, and produced ADP was quantified using an enzyme-coupled fluorescence ADP detection assay, using PHERAstar microplate reader (BMG Labtech, Offenburg, Germany) with excitation at 540 nm and emission at 590 nm, as previously described ([17]). The inhibition level was calculated as the percentage inhibition of DPCK activity with each compound compared to the activity with only dimethyl sulfoxide (DMSO) as control (no inhibition) and that with no enzyme as 100% inhibition. IC50 values of the hit compounds were determined under the same assay conditions for the screening: Z′ factor, signal-to-background ratio (S/B), signal-to-noise ratio (S/N), and coefficient of variation (CV) were calculated to estimate the quality of screening system as previously described ([18], [38]).
The primary hits were reassayed in quadruplicate (n = 4) as in the primary screening. We next tested the confirmed secondary hits to exclude false positives that inhibit coupled fluorescence assay, but not PfDPCK. After exclusion of false positives, all tertiary hits were tested against human HsCOASY in the counterassay to exclude compounds that inhibit both PfDPCK and HsCOASY. The compounds showing >10% inhibition against HsCOASY were excluded from further studies. The IC50 values of the hit compounds were determined under the same assay conditions described as above for the primary screening, with the serially diluted compounds at 20, 10, 2.5, 0.5, and 0.1 μM at final concentrations. The assay was conducted in quadruplicate for each dilution, and IC50 values were calculated using GraphPad Software (San Diego, California USA).

[3] = Homo sapiens, HepG2, 48 h, means ± SEMs, read-out: IC50 (μM) of: HepG2
[4] = Plasmodium falciparum, drug-sensitive 3D7, 72 h, means ± SEMs, read-out: IC50 (μM) of: Pf cell 3D7
[5] = Plasmodium falciparum, drug-resistant Dd2, 72 h, means ± SEMs, read-out: IC50 (μM) of: Pf cell Dd2
[6] = recombinant enzyme, means ± SEMs, read-out: IC50 (μM) of: PfDPCK
[7] = Homo sapiens, HepG2, ND (maximum concentration tested 100 μM), read-out: IC50 (μM) of: HepG2
[8] = Homo sapiens, HepG2, Table S1, means ± SEM, read-out: IC50 (μM) HepG2
[9] = Plasmodium falciparum, 3D7, Table S1, means ± SEM, read-out: IC50 (μM) Pf cell 3D7
[10] = Plasmodium falciparum, DD2, Table S1, means ± SEM, read-out: IC50 (μM) Pf cell Dd2
[11] = Table 2, PfDPCK inhibitor scaffolds Gr4, Gr5, Gr8, read-out: IC50
[12] = Homo sapiens, HepG2, read-out: IC50 (μM) of: HepG2
[13] = Plasmodium falciparum, 3D7, 72 h, read-out: IC50 (μM) of: Pf cell 3D7
[14] = Plasmodium falciparum, DD2, 72 h, read-out: IC50 (μM) of: Pf cell Dd2

SMILES | IC50 (HepG2 cell line; [3]) [µM] | Selectivity index IC50 (HepG2/3D7) [1] | Selectivity index IC50 (HepG2/Dd2) [2] | IC50 [1, 4] [nM] | IC50 [2, 5] [nM] | IC50 (PfDPCK; [6]) [µM] | also measured
O=C1C(O)=C([C@H]2CC[C@H](c3ccc(Cl)cc3)CC2)C(=O)c2ccccc21 [Atovaquone, reference compound] | 79.9 ± 1.79 | 363,181 | 499,375 |  |  |  | IC50 ([1]; Plasmodium falciparum, drug-sensitive 3D7, value in nM, read-out: IC50 of: Pf cell 3D7): 0.22 ± 0.03 nM; IC50 ([2]; Plasmodium falciparum, drug-resistant Dd2, value in nM, read-out: IC50 of: Pf cell Dd2): 0.16 ± 0.028 nM
CNc1nc(NC(C)(C)C)nc(NC(C)(C)C)n1 [Compound A-2] | > 100 | >23 | >102 | 4430 ± 40 | 980 ± 500 | 0.4 ± 0.07 | 
CCCn1c(C)cc(-c2csc(NC(=O)C3CC3)n2)c1C [Compound A-4] |  |  |  | 4450 ± 50 | 1590 ± 230 | 0.52 ± 0.09 | IC50 (HepG2 cell line; [7]): > 100 µM
CCNC(=N)SCc1c(C)c(C)c(C)c(C)c1C [Compound A-7] | 9.04 ± 0.01 | 8.2 | 69.5 | 1100 ± 110 | 130 ± 10 | 1.09 ± 0.03 | 
Nc1nc(Nc2cccc(F)c2)nc2ccccc12 [Compound A-13] |  |  |  | 1300 ± 60 | 3400 ± 350 | 1.69 ± 0.05 | IC50 (HepG2 cell line; [7]): > 100 µM
Cc1ccc(S(=O)(=O)Nc2cc(Cl)c(O)c3ccccc23)c(C)c1 [Compound A-16] | 39.6 ± 2.3 | 17.9 | 171.7 | 2210 ± 70 | 230 ± 10 | 2.09 ± 0.04 | 
CCOc1ccc(-n2cc(-c3ccccc3)c3c(NCCN(C)C)ncnc32)cc1 [Compound A-17] |  |  |  |  |  |  | IC50 (HepG2 cell line; [8]): 8.45 ± 0.35 µM; IC50 [1, 9]: 22900 ± 1870 nM; IC50 [2, 10]: 2700 ± 440 nM; IC50 (PfDPCK; [11]): 2.15 ± 0.07 µM
Cc1cc(-c2csc(NC3CC3)n2)c(C)n1CCC1=CCCCC1 [Compound A-19] | 81.5 | 22.4 | 30.8 | 3640 ± 40 | 2650 ± 130 | 2.55 ± 0.03 | 
CCOC(=O)C1NC(c2ccc[n+](C)c2)C23c4c5c6c7c8c9c(c%10c%11c2c2c4c4c%12c5c5c6c6c8c8c%13c9c9c%10c%10c%11c%11c2c2c4c4c%12c%12c5c5c6c8c6c8c%13c9c9c%10c%10c%11c2c2c4c4c%12c5c6c5c8c9c%10c2c45)C713 (centres unmarked) [Compound A-22] |  |  |  |  |  |  | IC50 (HepG2 cell line; [12]): > 100 µM; IC50 [1, 13]: 30600 ± 1500 nM; IC50 [2, 14]: 6320 ± 350 nM; IC50 (PfDPCK): 3.25 ± 0.02 µM
CCOC(=O)CN1C(C(=O)OCC)C23c4c5c6c7c8c9c(c%10c%11c2c2c4c4c%12c5c5c6c6c8c8c%13c9c9c%10c%10c%11c%11c2c2c4c4c%12c%12c5c5c6c8c6c8c%13c9c9c%10c%10c%11c2c2c4c4c%12c5c6c5c8c9c%10c2c45)C73C1c1cc[n+](C)cc1 (centres unmarked) [Compound A-23] |  |  |  |  |  |  | IC50 (HepG2 cell line; ND (maximum concentration tested 100 μM), read-out: IC50 (μM) of: HepG2): > 100 µM; IC50 ([1]; drug-sensitive 3D7, 72 h, means ± SEMs, read-out: IC50 (μM) of: Pf cell 3D7): 4470 ± 120 nM; IC50 ([2]; drug-resistant Dd2, 72 h, means ± SEMs, read-out: IC50 (μM) of: Pf cell Dd2): 7420 ± 460 nM; IC50 (PfDPCK): 3.31 ± 0.02 µM
Cc1cc(Nc2cc3ccccc3cc2O)n2ncnc2n1 [Compound A-25] |  |  |  | 1640 ± 30 | > 50000 | 3.45 ± 0.07 | IC50 (HepG2 cell line; [7]): > 100 µM
Cc1ccc(-c2nnc(Nc3ccc(O)cc3)c3ccccc23)cc1S(=O)(=O)NCCO [Compound A-26] |  |  |  | 14450 ± 80 | 3410 ± 1220 | 3.5 ± 0.04 | IC50 (HepG2 cell line; [7]): > 100 µM
CCN(CC)CCn1c(=N)n(CC(=O)c2cc(C(C)(C)C)c(O)c(C(C)(C)C)c2)c2ccccc21 [Compound A-30] | 3.75 ± 3.55 | 45.1 | 43.5 | 80 ± 10 | 90 ± 60 | 3.83 ± 0.03 | 
CC1(C)NC(C(=O)O)C23c4c5c6c7c8c9c(c%10c%11c2c2c4c4c%12c5c5c6c6c8c8c%13c9c9c%10c%10c%11c%11c2c2c4c4c%12c%12c5c5c6c8c6c8c%13c9c9c%10c%10c%11c2c2c4c4c%12c5c6c5c8c9c%10c2c45)C713 (centres unmarked) [Compound A-31] |  |  |  |  |  |  | IC50 (HepG2 cell line; [12]): > 100 µM; IC50 [1, 13]: > 50000 nM; IC50 [2, 14]: 670 ± 20 nM; IC50 (PfDPCK): 3.83 ± 0.04 µM
COc1ccc(NC(C)=O)cc1/N=C/c1cc(Br)cc(Br)c1O [Compound A-38] | > 100 | >3.4 | >142.8 | 29060 ± 200 | 700 ± 100 | 4.87 ± 0.05 | 
Cc1cccc(-n2cc(-c3ccccc3)c3c(NCCOCCO)ncnc32)c1 [Compound A-42] |  |  |  |  |  |  | IC50 (HepG2 cell line; [8]): 63.2 ± 3.48 µM; IC50 [1, 9]: 38200 ± 2910 nM; IC50 [2, 10]: 49700 ± 3220 nM; IC50 (PfDPCK; [11]): 6.14 ± 0.28 µM
Cc1cc(-c2csc(N3CCCC3)n2)c(C)n1-c1c(C)n(C)n(-c2ccccc2)c1=O [Compound A-44] |  |  |  | 3960 ± 40 | 1750 ± 50 | 6.33 ± 0.11 | IC50 (HepG2 cell line; [7]): > 100 µM
Cc1cc(-c2csc(-c3ccsc3)n2)c(C)n1CCCCCC(=O)O [Compound A-96] |  |  |  |  |  |  | IC50 [1, 9]: 31000 ± 2100 nM; IC50 [2, 10]: 27700 ± 2600 nM; IC50 (PfDPCK; [11]): 14.7 ± 0.28 µM
OC(c1cc(C(F)(F)F)nc2c(C(F)(F)F)cccc12)C1CCCCN1 (centres unmarked) [Mefloquine, reference compound] | 1.73 ± 0.7 | 133 | 8.8 | 13 ± 6 | 190 ± 70 |  | 
